ChEMBL document CHEMBL4308841, “Synthesis, in vitro antiproliferative activity, and kinase inhibitory effects of pyrazole-containing diarylureas and diarylamides” (Eur J Med Chem, 2018)

Columns and labels:
NCI-H322M = assay: Growth inhibition of human NCI-H322M cells incubated for 48 hrs by sulforhodamine B assay; format: functional, cell-based
SF-268 [1] = assay: Growth inhibition of human SF268 cells incubated for 48 hrs by sulforhodamine B assay; format: functional, cell-based; settings: SF-268, 48 h
IGROV-1 [2] = assay: Growth inhibition of human IGROV1 cells incubated for 48 hrs by sulforhodamine B assay; format: functional, cell-based; settings: IGROV-1, 48 h
OVCAR-3 [3] = assay: Growth inhibition of human OVCAR3 cells incubated for 48 hrs by sulforhodamine B assay; format: functional, cell-based; settings: OVCAR-3, 48 h
RXF 393 [4] = assay: Growth inhibition of human RXF393 cells incubated for 48 hrs by sulforhodamine B assay; format: functional, cell-based; settings: RXF 393, 48 h
PC-3 = assay: Growth inhibition of human PC3 cells incubated for 48 hrs by sulforhodamine B assay; format: functional, cell-based; settings: PC-3, 48 h
SR = assay: Growth inhibition of human SR cells assessed as cell growth at 0.01 uM incubated for 48 hrs by sulforhodamine B assay relative to control; format: functional; settings: read-out: Activity
KM12 = assay: Growth inhibition of human KM12 cells assessed as cell growth at 0.01 uM incubated for 48 hrs by sulforhodamine B assay relative to control; format: functional; settings: KM12, 48 h, read-out: Activity
SNB-19 [5] = assay: Growth inhibition of human SNB19 cells assessed as cell growth at 0.01 uM incubated for 48 hrs by sulforhodamine B assay relative to control; format: functional; settings: SNB-19, 48 h, read-out: Activity
SN12C [6] = assay: Growth inhibition of human SN12C cells assessed as cell growth at 0.01 uM incubated for 48 hrs by sulforhodamine B assay relative to control; format: functional; settings: read-out: Activity
SF-268 [7] = assay: Growth inhibition of human SF268 cells assessed as cell growth at 0.1 uM incubated for 48 hrs by sulforhodamine B assay relative to control; format: functional; settings: SF-268, 48 h, read-out: Activity
SNB-19 [8] = assay: Growth inhibition of human SNB19 cells assessed as cell growth at 0.1 uM incubated for 48 hrs by sulforhodamine B assay relative to control; format: functional; settings: SNB-19, 48 h, read-out: Activity
U-251 = assay: Growth inhibition of human U251 cells assessed as cell growth at 0.1 uM incubated for 48 hrs by sulforhodamine B assay relative to control; format: functional; settings: U-251, 48 h, read-out: Activity
OVCAR-5 [9] = assay: Growth inhibition of human OVCAR5 cells assessed as cell growth at 0.1 uM incubated for 48 hrs by sulforhodamine B assay relative to control; format: functional; settings: OVCAR-5, 48 h, read-out: Activity
RXF 393 [10] = assay: Growth inhibition of human RXF393 cells assessed as cell growth at 0.1 uM incubated for 48 hrs by sulforhodamine B assay relative to control; format: functional; settings: RXF 393, 48 h, read-out: Activity
NCI-H23 = assay: Growth inhibition of human NCI-H23 cells assessed as cell growth at 1 uM incubated for 48 hrs by sulforhodamine B assay relative to control; format: functional; settings: NCI-H23, 48 h, read-out: Activity
SF-268 [11] = assay: Growth inhibition of human SF268 cells assessed as cell growth at 1 uM incubated for 48 hrs by sulforhodamine B assay relative to control; format: functional; settings: SF-268, 48 h, read-out: Activity
SF-539 = assay: Growth inhibition of human SF539 cells assessed as cell growth at 1 uM incubated for 48 hrs by sulforhodamine B assay relative to control; format: functional; settings: SF-539, 48 h, read-out: Activity
SNB-75 = assay: Growth inhibition of human SNB75 cells assessed as cell growth at 1 uM incubated for 48 hrs by sulforhodamine B assay relative to control; format: functional; settings: SNB-75, 48 h, read-out: Activity
Malme-3M = assay: Growth inhibition of human MALME-3M cells assessed as cell growth at 1 uM incubated for 48 hrs by sulforhodamine B assay relative to control; format: functional; settings: read-out: Activity
UACC-62 = assay: Growth inhibition of human UACC62 cells assessed as cell growth at 1 uM incubated for 48 hrs by sulforhodamine B assay relative to control; format: functional; settings: UACC-62, 48 h, read-out: Activity
SN12C [12] = assay: Growth inhibition of human SN12C cells assessed as cell growth at 1 uM incubated for 48 hrs by sulforhodamine B assay relative to control; format: functional; settings: read-out: Activity
UO-31 = assay: Growth inhibition of human UO31 cells assessed as cell growth at 1 uM incubated for 48 hrs by sulforhodamine B assay relative to control; format: functional; settings: UO-31, 48 h, read-out: Activity
MCF7 = assay: Growth inhibition of human MCF7 cells assessed as cell growth at 1 uM incubated for 48 hrs by sulforhodamine B assay relative to control; format: functional; settings: MCF7, 48 h, read-out: Activity
Hs-578T = assay: Growth inhibition of human Hs578T cells assessed as cell growth at 1 uM incubated for 48 hrs by sulforhodamine B assay relative to control; format: functional; settings: read-out: Activity
NCI-H226 = assay: Growth inhibition of human NCI-H226 cells assessed as cell growth at 100 uM incubated for 48 hrs by sulforhodamine B assay relative to control; format: functional; settings: NCI-H226, 48 h, read-out: Activity
HCC 2998 = assay: Growth inhibition of human HCC2998 cells assessed as cell growth at 100 uM incubated for 48 hrs by sulforhodamine B assay relative to control; format: functional; settings: HCC 2998, 48 h, read-out: Activity
IGROV-1 [13] = assay: Growth inhibition of human IGROV1 cells assessed as cell growth at 100 uM incubated for 48 hrs by sulforhodamine B assay relative to control; format: functional; settings: IGROV-1, 48 h, read-out: Activity
OVCAR-3 [14] = assay: Growth inhibition of human OVCAR3 cells assessed as cell growth at 100 uM incubated for 48 hrs by sulforhodamine B assay relative to control; format: functional; settings: OVCAR-3, 48 h, read-out: Activity
OVCAR-5 [15] = assay: Growth inhibition of human OVCAR5 cells assessed as cell growth at 100 uM incubated for 48 hrs by sulforhodamine B assay relative to control; format: functional; settings: OVCAR-5, 48 h, read-out: Activity
NCI/ADR-RES = assay: Growth inhibition of human NCI/ADR-RES cells assessed as cell growth at 100 uM incubated for 48 hrs by sulforhodamine B assay relative to control; format: functional; settings: read-out: Activity
[16] = read-out: LC50 (the source's name)
[17] = read-out: pLC50 (the source's name) (converted)

How did the GI50 (NCI-H322M; read-out: GI50) turn out when `COc1cc(Cl)cc(-c2nn(-c3cccc(NC(=O)c4cccc(C(F)(F)F)c4)c3)cc2-c2ccncc2)c1` was run?
The GI50 was over 100 µM.

And the CC50 (NCI-H322M; [16])?
Its CC50 is over 100 µM.

And the TGI (NCI-H322M; read-out: TGI)?
The TGI was over 100 µM.

What about the GI50 (NCI-H322M; read-out: pGI50 (converted)) of the same compound?
Its GI50 is over 100 µM.

And the CC50 (NCI-H322M; [17])?
Its CC50 is over 100 µM.

And the TGI (NCI-H322M; read-out: pTGI (converted))?
The TGI was over 100 µM.

What about the GI50 (SF-268 [1]; read-out: GI50) of the same compound?
Its GI50 is over 100 µM.

And the CC50 (SF-268 [1]; [16])?
The CC50 was over 100 µM.

What about the TGI (SF-268 [1]; read-out: TGI) of the same compound?
Its TGI is over 100 µM.

What about the GI50 (SF-268 [1]; read-out: pGI50 (converted)) of the same compound?
Its GI50 is over 100 µM.

And the CC50 (SF-268 [1]; [17])?
Its CC50 is over 100 µM.

And the TGI (SF-268 [1]; read-out: pTGI (converted))?
The TGI was over 100 µM.

And the GI50 (IGROV-1 [2]; read-out: GI50)?
The GI50 was over 100 µM.

And the CC50 (IGROV-1 [2]; [16])?
The CC50 was over 100 µM.

What about the TGI (IGROV-1 [2]; read-out: TGI) of the same compound?
Its TGI is over 100 µM.

And the GI50 (IGROV-1 [2]; read-out: pGI50 (converted))?
Its GI50 is over 100 µM.

What about the CC50 (IGROV-1 [2]; [17]) of the same compound?
Its CC50 is over 100 µM.

What about the TGI (IGROV-1 [2]; read-out: pTGI (converted)) of the same compound?
Its TGI is over 100 µM.

And the IC50 (OVCAR-3 [3])?
Its IC50 is 7.69 µM.

And the GI50 (OVCAR-3 [3]; read-out: GI50)?
Its GI50 is 7.59 µM.

And the CC50 (OVCAR-3 [3]; [16])?
The CC50 was over 100 µM.

And the TGI (OVCAR-3 [3]; read-out: TGI)?
The TGI was over 100 µM.

And the GI50 (OVCAR-3 [3]; read-out: pGI50 (converted))?
The GI50 was 7.76 µM.

And the CC50 (OVCAR-3 [3]; [17])?
The CC50 was over 100 µM.

And the TGI (OVCAR-3 [3]; read-out: pTGI (converted))?
The TGI was over 100 µM.

And the LC50 (RXF 393 [4])?
Its LC50 is over 100 µM.

And the GI50 (RXF 393 [4]; read-out: GI50)?
The GI50 was 1.57 µM.

And the TGI (RXF 393 [4]; read-out: TGI)?
The TGI was over 100 µM.

What about the GI50 (RXF 393 [4]; read-out: pGI50 (converted)) of the same compound?
The GI50 was 1.86 µM.

What about the TGI (RXF 393 [4]; read-out: pTGI (converted)) of the same compound?
Its TGI is over 100 µM.

What about the IC50 (PC-3) of the same compound?
Its IC50 is 2.71 µM.

What about the GI50 (PC-3; read-out: GI50) of the same compound?
The GI50 was 2.71 µM.

And the CC50 (PC-3; [16])?
The CC50 was over 100 µM.

What about the TGI (PC-3; read-out: TGI) of the same compound?
The TGI was over 100 µM.

And the GI50 (PC-3; read-out: pGI50 (converted))?
The GI50 was 2.69 µM.

What about the CC50 (PC-3; [17]) of the same compound?
The CC50 was over 100 µM.

What about the TGI (PC-3; read-out: pTGI (converted)) of the same compound?
Its TGI is over 100 µM.

And the growth at 0.01 µM (SR)?
Its growth at 0.01 µM is 57%.

What about the growth at 0.01 µM (KM12) of the same compound?
Its growth at 0.01 µM is 110%.

What about the growth at 0.01 µM (SNB-19 [5]) of the same compound?
The growth at 0.01 µM was 96%.

And the growth at 0.01 µM (SN12C [6])?
The growth at 0.01 µM was 99%.

What about the growth at 0.1 µM (SF-268 [7]) of the same compound?
The growth at 0.1 µM was 100%.

And the growth at 0.1 µM (SNB-19 [8])?
The growth at 0.1 µM was 97%.

And the growth at 0.1 µM (U-251)?
Its growth at 0.1 µM is 91%.

What about the growth at 0.1 µM (OVCAR-5 [9]) of the same compound?
Its growth at 0.1 µM is 94%.

And the growth at 0.1 µM (RXF 393 [10])?
The growth at 0.1 µM was 65%.

And the growth at 1 µM (NCI-H23)?
The growth at 1 µM was 94%.

And the growth at 1 µM (SF-268 [11])?
Its growth at 1 µM is 100%.

And the growth at 1 µM (SF-539)?
Its growth at 1 µM is 52%.

What about the growth at 1 µM (SNB-75) of the same compound?
Its growth at 1 µM is 70%.

And the growth at 1 µM (Malme-3M)?
The growth at 1 µM was 82%.

And the growth at 1 µM (UACC-62)?
The growth at 1 µM was 56%.

What about the growth at 1 µM (SN12C [12]) of the same compound?
The growth at 1 µM was 58%.

And the growth at 1 µM (UO-31)?
The growth at 1 µM was 54%.

And the growth at 1 µM (MCF7)?
The growth at 1 µM was 57%.

What about the growth at 1 µM (Hs-578T) of the same compound?
Its growth at 1 µM is 52%.

And the growth at 100 µM (NCI-H226)?
Its growth at 100 µM is 50%.

And the growth at 100 µM (HCC 2998)?
Its growth at 100 µM is 15%.

And the growth at 100 µM (IGROV-1 [13])?
The growth at 100 µM was 70%.

What about the growth at 100 µM (OVCAR-3 [14]) of the same compound?
The growth at 100 µM was 38%.

And the growth at 100 µM (OVCAR-5 [15])?
Its growth at 100 µM is 59%.

What about the growth at 100 µM (NCI/ADR-RES) of the same compound?
The growth at 100 µM was 31%.
